Data set [1] has as its target T1, recombinant human maltase glucoamylase (MGA) (Homo sapiens, UniProt O43451). In words: Recombinant MGA inhibition, maltose substrate, glucose oxidase assay (Ki). It counts as biochemical. Conditions: for Ki: maltose substrate, read-out: Ki against recombinant human MGA. The procedure: (§1) Enzyme Activity Assays: Measurement of dGMII inhibition was carried out as outlined in the literature.^12 Analysis of recombinant MGA inhibition and determination of the kinetic constants for competitive inhibition have been described.^60 Briefly, analysis of MGA inhibition was performed using maltose as the substrate, and measuring the release of glucose. Reactions were carried out in 100 mM MES buffer pH 6.5 at 37° C. The reaction was stopped by boiling for 3 min. 20 μL aliquots were taken and added to 100 μL of glucose oxidase assay reagent (Sigma) in a 96-well plate. Reactions were developed for 1 hour and absorbance was measured at 450 nm to determine the amount of glucose produced by MGA activity in the reaction. All reactions were performed in triplicate and absorbance measurements were averaged to give a final result.
Enzyme Kinetics: Kinetic parameters of recombinant MGA were determined using the glucose oxidase assay to follow the production of glucose upon addition of enzyme (15 nM) at increasing maltose concentrations (from 2.5 mM to 30 mM) with a reaction time of 15 minutes. The Ki value was determined by measuring the rate of maltose hydrolysis by MGA at varying inhibitor concentrations. Data were plotted in Lineweaver-Burk plots (1/rate vs. 1/[substrate]) and the Ki value was determined by the equation Ki=Km[I]/(Vmax)s−Km, where “s” is the slope of the line. The Ki reported was an average of the Ki values obtained from each of the different inhibitor concentrations.
Enzyme Activity Assay. Analysis of MGA inhibition was performed using maltose as the substrate, and measuring the release of glucose. Reactions were carried out in 100 mM MES buffer pH 6.5 at 37° C. for 15 min. The reaction was stopped by boiling for 3 min. 20 μL aliquots were taken and added to 100 μL of glucose oxidase assay reagent (Sigma) in a 96-well plate. Reactions were allowed to proceed for 1 h and absorbance was measured at 450 nm to determine the amount of glucose produced by MGA activity in the reaction. One unit of activity is defined as the hydrolysis of one […] of maltose per minute. All reactions were performed in triplicate and absorbance measurements were averaged to give a final result.
Enzyme Kinetics. Kinetic parameters of recombinant MGA were determined using the glucose oxidase assay to follow the production of glucose upon addition of enzyme (15 nM) at increasing maltose concentrations (from 1 mM-3.5 mM) with a reaction time of 15 min. The program GraFit 4.0.14 was used to fit the data to the Michaelis-Menten equation and estimate the kinetic parameters, Km and Vmax, of the enzyme. Ki values for each inhibitor were determined by measuring the rate of maltose hydrolysis by MGA at varying inhibitor concentrations. Data were plotted in Lineweaver-Burk plots (1/rate vs. 1/[substrate]) and Ki values were determined by the equation Ki=Km[I]/(Vmax)m−Km, where “m” is the slope of the line. The Ki reported for each inhibitor was estimated by averaging the Ki values obtained from each of the different inhibitor concentrations.

The target in data set [2] is T2, Drosophila melanogaster Golgi α-mannosidase II (dGMII) (Drosophila melanogaster, UniProt Q24451).
T2 sequence (Q24451 1-1108): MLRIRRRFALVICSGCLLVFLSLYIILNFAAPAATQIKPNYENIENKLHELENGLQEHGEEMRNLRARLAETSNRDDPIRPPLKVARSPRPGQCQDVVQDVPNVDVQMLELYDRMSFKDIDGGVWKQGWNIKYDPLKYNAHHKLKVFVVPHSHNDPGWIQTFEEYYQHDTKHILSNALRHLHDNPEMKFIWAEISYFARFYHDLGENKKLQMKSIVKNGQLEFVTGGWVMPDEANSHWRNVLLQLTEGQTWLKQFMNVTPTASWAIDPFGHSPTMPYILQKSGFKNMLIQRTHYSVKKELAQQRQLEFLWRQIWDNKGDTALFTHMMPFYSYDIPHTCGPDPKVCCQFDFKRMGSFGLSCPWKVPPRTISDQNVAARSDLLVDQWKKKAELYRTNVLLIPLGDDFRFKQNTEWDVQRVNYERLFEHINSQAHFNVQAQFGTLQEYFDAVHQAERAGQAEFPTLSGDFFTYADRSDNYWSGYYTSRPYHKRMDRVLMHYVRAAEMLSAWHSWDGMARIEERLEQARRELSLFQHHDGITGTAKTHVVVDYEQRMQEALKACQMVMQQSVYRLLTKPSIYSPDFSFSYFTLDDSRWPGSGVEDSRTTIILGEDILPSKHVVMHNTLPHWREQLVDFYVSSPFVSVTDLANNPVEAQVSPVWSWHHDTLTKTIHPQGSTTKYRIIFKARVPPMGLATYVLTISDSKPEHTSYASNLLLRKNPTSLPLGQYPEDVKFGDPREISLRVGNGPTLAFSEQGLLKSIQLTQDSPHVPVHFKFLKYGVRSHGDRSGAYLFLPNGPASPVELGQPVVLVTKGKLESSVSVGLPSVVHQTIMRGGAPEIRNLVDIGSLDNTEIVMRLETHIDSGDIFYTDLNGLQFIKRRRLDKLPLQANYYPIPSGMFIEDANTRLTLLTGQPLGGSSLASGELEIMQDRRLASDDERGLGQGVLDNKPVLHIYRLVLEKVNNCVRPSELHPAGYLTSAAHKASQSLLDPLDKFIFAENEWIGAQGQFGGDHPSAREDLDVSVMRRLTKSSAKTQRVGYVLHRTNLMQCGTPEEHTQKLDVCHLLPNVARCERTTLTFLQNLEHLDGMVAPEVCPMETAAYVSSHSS
Conditions: read-out: IC50 against dGMII, cited from earlier work.

Data set [3] deals with T1, recombinant human maltase glucoamylase (MGA). Conditions: cited from earlier work.
Data set [4] has the same target. In words: MGA inhibition, p-nitrophenyl α-D-glucopyranoside substrate (IC50). It counts as biochemical. Conditions: p-nitrophenyl α-D-glucopyranoside as substrate. The procedure:
The assays were carried out in 96-well microtiter plates containing 100 mM MES buffer pH 6.5, inhibitor and pNP-glucose as substrate, with a final volume of 50 μL. Reactions were incubated at 37° C. for 35 min and terminated by addition of 50 μL of 0.5 M sodium carbonate. […] All reactions were performed in triplicate and absorbance measurements were averaged to give a final result.

In data set [5] the target is T2, Drosophila melanogaster Golgi α-mannosidase II (dGMII). In words: dGMII inhibition. It counts as biochemical. The procedure: as §1

Structures can show the parent of a compound that is named as a salt. Where two headings read alike, the source gives them in different places.

T1 sequence (O43451 87-954 limits assumed): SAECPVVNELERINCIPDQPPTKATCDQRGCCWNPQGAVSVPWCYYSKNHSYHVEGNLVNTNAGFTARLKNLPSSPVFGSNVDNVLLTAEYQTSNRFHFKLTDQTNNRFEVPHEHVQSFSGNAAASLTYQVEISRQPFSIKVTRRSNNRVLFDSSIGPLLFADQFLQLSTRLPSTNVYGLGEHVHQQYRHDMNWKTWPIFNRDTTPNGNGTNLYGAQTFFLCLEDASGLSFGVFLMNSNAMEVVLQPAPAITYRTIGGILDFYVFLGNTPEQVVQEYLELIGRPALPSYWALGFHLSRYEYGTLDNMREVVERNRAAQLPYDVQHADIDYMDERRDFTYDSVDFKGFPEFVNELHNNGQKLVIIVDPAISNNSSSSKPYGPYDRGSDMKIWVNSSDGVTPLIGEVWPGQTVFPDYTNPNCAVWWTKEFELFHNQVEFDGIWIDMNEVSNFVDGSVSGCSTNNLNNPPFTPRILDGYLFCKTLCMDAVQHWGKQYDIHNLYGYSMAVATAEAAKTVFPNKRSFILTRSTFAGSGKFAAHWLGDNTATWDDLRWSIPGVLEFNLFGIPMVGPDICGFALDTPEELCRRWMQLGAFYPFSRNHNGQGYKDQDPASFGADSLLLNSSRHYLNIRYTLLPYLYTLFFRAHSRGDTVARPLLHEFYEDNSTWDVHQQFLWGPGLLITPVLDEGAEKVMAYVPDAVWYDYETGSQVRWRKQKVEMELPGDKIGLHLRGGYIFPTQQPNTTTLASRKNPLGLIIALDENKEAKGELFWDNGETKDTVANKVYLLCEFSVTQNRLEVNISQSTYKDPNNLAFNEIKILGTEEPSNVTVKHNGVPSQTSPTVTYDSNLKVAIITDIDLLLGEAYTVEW

As for `O=S(=O)([O-])O[C@H](CO)[C@H](O)[C@@H](O)C[S+]1C[C@@H](O)[C@H](O)[C@H]1CO` (stereo partly drawn) [Compound 80, 1,4-Dideoxy-1,4[[2R,3R,4R]-2,3,5-trihydroxy-4-(sulfooxy)-pentyl]-epi-sulfoniumylidene]-D-arabinitol Inner salt], the “inhibitory activity against recombinant human MGA (in words)” value in data set [1] is recorded as “not active”. Same read-out and setting: the same measure for `O=S(=O)([O-])OC(CO)C(O)C(O)C[Se+]1CC(O)C(O)C1CO` [Compound 81, 1,4-Dideoxy-1,4[[2R,3R,4R]-2,3,5-trihydroxy-4-(sulfooxy)-pentyl]-epi-selenoniumylidene]-D-arabinitol Inner salt]: “not active”. For orientation: IC50 means the point on the concentration scale where inhibition reaches its midpoint. The Ki is a measure of affinity in units of concentration, obtained from inhibition or displacement. As for `O=S(=O)([O-])OC(CO)C(O)C[Se+]1CC(O)C(O)C1CO` (stereo not shown) [blintol], the IC50 in data set [2] is approximately 7500 µM. In addition, the Ki in data set [3] (read-out: Ki against MGA, reference compounds, unit inferred) was 0.49 ± 0.05 µM.

Consider `O=S(=O)([O-])O[C@@H]([C@H](O)C[S@+]1C[C@@H](O)[C@H](O)[C@H]1CO)[C@@H](O)CO` [Compound 89], for which the “inhibitory activity against MGA (in words)” value in data set [3] was “inactive”.

As to `O=S(=O)([O-])OC(C(O)C[S+]1CC(O)C(O)C1CO)C(O)C(O)C(O)CO` (stereo not shown) [kotalanol], the IC50 in data set [2] is approximately 7500 µM. On to `CCCCCCCCCCCCCC[S+]1CC(O)C(O)C1CO` [Compound 44, 1,4-Dideoxy-1,4-[(1-tetradecyl)-(R)-episulfoniumylidene]-D-arabinitol triflate], for which the IC50 in data set [4] is 25 µM. `O=C([O-])[C@H](O)[C@H](O)[C@H](O)C[S@@+]1C[C@H](O)[C@@H](O)[C@@H]1CO` [Compound 4, 1,4-Dideoxy-1,4-[[(2′S,3′S,4′R)-2′,3′,4′-trihydroxy-4′-carboxybutyl]-episulfoniumyl-idene]-L-arabinitol inner salt]: the “inhibitory activity against recombinant human MGA (in words)” value in data set [1] is “Only compound 5, with the D-arabinitol configuration in the heterocyclic ring displayed by salacinol 1, was found to be active”. On to `CCCCCCCCCCCCCCCCCC[S+]1CC(O)C(O)C1CO` [Compound 49, 1,4-Dideoxy-1,4-[(1-octadecyl)-(R)-episulfoniumylidene]-D-arabiiiitol chloride], for which the half-maximal inhibitory concentration (IC50) in data set [4] was found to be 15 µM. Same read-out and setting: under `CCCCCC[S+]1CC(O)C(O)C1CO` [Compound 46, 1,4-Dideoxy-1,4-[(1-hexyl)-(R)-episulfoniumylidene]-D-arabinitol chloride] stands 50 µM. Consider `O=C(O)[C@@H](O)[C@@H](O)[C@H](O)[C@@H](O)CN1C[C@H](O)[C@@H](O)[C@@H]1CO` [Compound 20, 6′-((1,4-Dideoxy-1,4-imino-L-arabinitol)-4-N-ammonium)-6′-deoxy-L-gulonate], for which the “activity against dGMII (in words)” value in data set [5] was “not active on either enzyme”. Moreover, in data set [1], the “inhibitory activity against recombinant human MGA (in words)” value is reported as “not active on either enzyme”. With `O=S(=O)([O-])OC(CO)C(O)C(O)C[S+]1CC(O)C(O)C1CO` (stereo not shown) [Compound 78], the inhibitory constant (Ki) in data set [1] was determined as 20 ± 4 µM. Regarding `O=C([O-])C(O)C(O)C(O)C[S+]1CC(O)C(O)C1CO` [Compound 5, 1,4-Dideoxy-1,4-[[(2′S,3′S,4′R)-2′,3′,4′-trihydroxy-4′-carboxybutyl]-episulfoniumyl-idene]-D-arabinitol inner salt], the Ki in data set [1] was 10 µM. As for `CCCCCCCCCCCCCC[S+]1CC(O)C(O)C1CO` [Compound 48, 1,4-Dideoxy-1,4-[(1-tetradecyl)-(R)-episulfoniumylidene]-D-arabinitol chloride], in data set [4], the IC50 turned out to be 30 µM. As a reminder, the melting point is the temperature of the solid-liquid transition. With `CCCCCCCCCCCCCC[S+]1CC(O)C(O)C1CO` (as salt: chloride) [Compound 48, 1,4-Dideoxy-1,4-[(1-tetradecyl)-(R)-episulfoniumylidene]-D-arabinitol chloride], the melting point lay within 86 to 88 °C. On the same count and under the same terms, the same measure for `CCCCCCCCCCCCCCCCCC[S+]1CC(O)C(O)C1CO` (as salt: chloride) [Compound 49, 1,4-Dideoxy-1,4-[(1-octadecyl)-(R)-episulfoniumylidene]-D-arabiiiitol chloride]: 95 to 97 °C. Turning to `O[C@H]1[C@H]2[C@H](O)CCCN2C[C@H]1O` [swainsonine], in data set [2] (swainsonine, literature value), the IC50 was 0.02 to 0.04 µM. For the compound `O=S(=O)([O-])OC(CO)C(O)C(O)C[Se+]1CC(O)C(O)C1CO` [Compound 79, 1,4-Dideoxy-1,4[[2S,3S,4S]-2,3,5-trihydroxy-4-(sulfooxy)-pentyl]-epi-selenoniumylidene]-D-arabinitol Inner salt], in data set [1], the inhibition constant Ki amounted to 53 ± 5 µM. For the compound `O=C(O)[C@@H](O)[C@@H](O)[C@H](O)[C@@H](O)CN1C[C@@H](O)[C@H](O)[C@H]1CO` [Compound 21, 6′-((1,4-Dideoxy-1,4-imino-D-arabinitol)-4-N-ammonium)-6′-deoxy-L-gulonic acid hydro-chloride], in data set [5] (0.3 mM vs approximately 7.5 mM), the “improvement of dGMII inhibition over salacinol, kotalanol and other analogues” value amounted to 25 fold. Besides, the 50% inhibitory concentration (IC50) in data set [5] (read-out: IC50 against dGMII) came to 300 µM. Further, in data set [1], the inhibitory constant (Ki) amounted to 21 µM. Turning to `O=S(=O)([O-])OC(CO)C(O)C[S+]1CC(O)C(O)C1CO` (stereo not shown) [salacinol], the IC50 in data set [2] was approximately 7500 µM.

With `CC(C)CC[S+]1CC(O)C(O)C1CO` [Compound 50, 1,4-Dideoxy-1,4-[[1-(3-methyl)-butyl]-(R)-episulfoniumylidene]-D-arabinitol chloride], in data set [4], the IC50 stood at 50 µM. In turn, `CCCCCCCCCCCCCC[S+]1CC(O)C(O)C1CO` (as salt: triflate) [Compound 44, 1,4-Dideoxy-1,4-[(1-tetradecyl)-(R)-episulfoniumylidene]-D-arabinitol triflate] yielded a melting point of 69 to 71 °C.
